# Experimental data from ChEMBL document CHEMBL1146095, “Modeling the preferred shapes of polyamine transporter ligands and dihydromotuporamine-C mimics: shovel versus hoe” (J Med Chem, 2006).
# Legend:
# [1] = test system: CHO; test: Cytotoxicity against CHO cell line; assay type: functional, cell-based; conditions: Cricetulus griseus
# [2] = Selectivity for CHO cells over CHO-MG cells; assay type: functional
# [3] = test system: CHO-MG; test: Cytotoxicity against CHO-MG cell line; assay type: functional, cell-based; conditions: Cricetulus griseus
# [4] = test system: Mammalian polyamine transporter; test: Inhibition of [14C]spermidine uptake into polyamine transporter expressed in L1210 cells; assay type: functional, cell-based, Mus musculus
compound,measurement,setting,value
CCN(CCCNCCCN)Cc1c2ccccc2cc2ccccc12.Cl.Cl.Cl,IC50,[1],5.3 µM
same,Ratio IC50,[2],0.8
same,IC50,[3],4 µM
same,Ki,[4],23.5 µM
